Measured values taken from the SangsterLogP compilation.

How the values were obtained:
[1] = method code SF-AS, from DOI: 10.2307/3574491, PMID: 940937; conditions: pH 7.4
[2] = method code SF-GLC, from DOI: 10.1080/00032718608066246; conditions: pH 7.0
[3] = method code SF-RC,AS, from DOI: 10.1016/s0022-3565(25)22658-1, PMID: 3367302; conditions: pH 7.4
[4] = method code SF-HPLC, from DOI: 10.1021/js980008v, PMID: 9758683
[5] = not given; remark: listed apart in the source
[6] = not given; remark: listed apart in the source
[7] = not given; remark: listed apart in the source
[8] = method code SF-AS, from DOI: 10.1023/a:1021720128725
[9] = not given; remark: listed apart in the source
[10] = not given; remark: listed apart in the source
[11] = not given; remark: listed apart in the source
[12] = method code SF-RC, from DOI: 10.1007/bf01870888, PMID: 7057454
[13] = not given; remark: listed apart in the source
[14] = not given; remark: listed apart in the source
[15] = pH 2.0
[16] = not given; remark: listed apart in the source
[17] = not given; remark: listed apart in the source

Question: With `O=[N+]([O-])c1nccn1CCO` as the molecule, how does the logD [1] read?
Answer: The logD was -0.51.

Question: For `Cc1c(F)c(F)c(COC(=O)[C@H]2[C@@H](/C=C(\Cl)C(F)(F)F)C2(C)C)c(F)c1F`, which logP is on record?
Answer: The logP was 6.5.

Question: With `Cn1c(C=O)cnc1[N+](=O)[O-]` as the molecule, how does the logD [1] read?
Answer: The logD was -0.1.

Question: With `c1ccc2nc3ccccc3cc2c1` as the molecule, how does the logD [2] read?
Answer: The logD was 3.32.

Question: For `[N-]=[N+]=N[C@H]1C[C@H](n2ccc(=O)[nH]c2=O)O[C@@H]1CO`, which logD [3] is on record?
Answer: The logD was -0.37.

Question: For `CCC(=O)OCN1C(=O)NC(c2ccccc2)(c2ccccc2)C1=O`, which logP [4] is on record?
Answer: The logP was 3.34.

Question: For `CC(C)(C)c1cccc(C(C)(C)C)c1O`, which logP [5] is on record?
Answer: The logP was 4.92.

Question: With `Cc1ccccc1C(=N)c1ccccc1` as the molecule, how does the logP [6] read?
Answer: Its logP is 3.21.

Question: Which logP [7] does the source give for `CCCC(C)C1(CC)C(=O)NC(=S)NC1=O` (centres undefined) here?
Answer: Its logP is 2.54.

Question: Which logP [8] does the source give for `COc1ccc(-c2cn3c(=O)c4ncn(COCCO)c4nc3[nH]2)cc1` here?
Answer: The logP was 0.39.

Question: Which logP [9] does the source give for `CCCCCC` here?
Answer: Its logP is 3.9.

Question: For `Nc1c(Cl)c(Cl)nc(C(=O)O)c1Cl`, which logP [10] is on record?
Answer: The logP was 1.

Question: With `O=C(O)c1ccc(O)cc1O` as the molecule, how does the logP [11] read?
Answer: The logP was 1.41.

Question: With `NC(N)=O` as the molecule, how does the logP [12] read?
Answer: Its logP is -1.54.

Question: For `CCN(CC)CCO`, which logP [13] is on record?
Answer: The logP was 0.31.

Question: For `COCC(O)Cn1c([N+](=O)[O-])cnc1C` (centres undefined), which logD [1] is on record?
Answer: Its logD is 0.04.

Question: For `CC(C)(C(=O)O)C(=O)O`, which logP [13] is on record?
Answer: Its logP is 0.26.

Question: Which logP [13] does the source give for `CC(=O)OCCOC(C)=O` here?
Answer: Its logP is 0.1.

Question: For `Cc1ccc(C(=O)O)c(C2=NC(C)(C(C)C)C(=O)N2)c1` (centres undefined), which logP is on record?
Answer: The logP was 1.54.

Question: Which logP [6] does the source give for `Cc1cccc(C)c1C(=N)c1ccccc1` here?
Answer: Its logP is 3.53.

Question: Which logD [1] does the source give for `CCOC(=O)Cn1c(CC)cnc1[N+](=O)[O-]` here?
Answer: Its logD is 0.

Question: Which logD [1] does the source give for `Cc1cnc([N+](=O)[O-])n1CCO` here?
Answer: Its logD is 0.18.

Question: For `Cc1c(C)c2c(c(C)c1O)CCC(C)(COc1ccc(CC3SC(=O)NC3=O)cc1)O2` (centres undefined), which logP [14] is on record?
Answer: Its logP is 2.7.

Question: With `C/C=C/C=C/C(=O)O` as the molecule, how does the logD [15] read?
Answer: The logD was 1.64.

Question: Which logP [14] does the source give for `CO[C@H]1CCC[C@H]2C1=C(C(=O)OC(C)OC(=O)OC1CCCCC1)N1C(=O)[C@H]([C@@H](C)O)[C@@H]21` (some centres undefined) here?
Answer: The logP was 3.

Question: For `Cc1ccc(C(=N)c2ccc(C)cc2)cc1`, which logP [6] is on record?
Answer: The logP was 3.71.

Question: With `Nc1cccc(N)c1` as the molecule, how does the logP [13] read?
Answer: Its logP is 0.

Question: With `CN(C)C(=O)Nc1ccc(Oc2ccc(Cl)cc2)cc1` as the molecule, how does the logP [10] read?
Answer: Its logP is 3.7.

Question: For `COc1ccc(/C=C/[N+](=O)[O-])cc1`, which logP [16] is on record?
Answer: The logP was 2.2.

Question: With `Nc1c(Cl)cc(Cl)cc1Cl` as the molecule, how does the logP [17] read?
Answer: The logP was 3.42.

Question: With `Nc1nc2c(nc(Br)n2COCCO)c(=O)[nH]1` as the molecule, how does the logP [8] read?
Answer: The logP was -0.26.

Question: With `CCOP(=S)(OCC)SCSP(=S)(OCC)OCC` as the molecule, how does the logP read?
Answer: Its logP is 4.

Question: Which logP [13] does the source give for `COP(=S)(CN1C(=O)c2ccccc2C1=O)OC` here?
Answer: Its logP is 2.83.

Question: Which logP [10] does the source give for `CCNC(=O)[C@@H](C)OC(=O)Nc1ccccc1` here?
Answer: The logP was 1.
